Laboratory results taken from paper PMC5489766 (Journal of Ginseng Research, 2016).

Tests used:
HSA [1] = target: T1, HSA (Homo sapiens, UniProt P02768); test: Fluorescence quenching of HSA by G-Rh2; type: binding; conditions: for KSV: HSA 1 μM, pH 7.4; for Kd: K (binding constant)
BSA [2] = target: T2, BSA (Bos taurus, UniProt P02769); test: Fluorescence quenching of BSA by G-Rh2; type: binding, bovine; conditions: for KSV: BSA 1 μM, pH 7.4; for Kd: K (binding constant)
HepG2 cells = test: MTT assay, cytotoxic activity with or without serum albumin; type: cell-based; conditions: HepG2, 7.5 μg/mL, 48 h
[3] = tested on: PARP cleavage in HepG2 cells; test: Immunoblotting of PARP cleavage; type: cell-based; conditions: HepG2, 7.5 μg/mL, BSA or bovine serum, 4 h
[4] = general statement; cited from earlier work
HSA [5] = target: T1, HSA; test: UV-Vis absorption spectra of HSA with G-Rh2; type: binding; conditions: HSA 25 μM, G-Rh2 50 μM, 298K, pH7.4
BSA [6] = target: T2, BSA; test: UV-Vis absorption spectra of BSA with G-Rh2; type: binding, bovine; conditions: BSA 25 μM, G-Rh2 50 μM, 298K, pH7.4

T2 sequence (P02769 25-607): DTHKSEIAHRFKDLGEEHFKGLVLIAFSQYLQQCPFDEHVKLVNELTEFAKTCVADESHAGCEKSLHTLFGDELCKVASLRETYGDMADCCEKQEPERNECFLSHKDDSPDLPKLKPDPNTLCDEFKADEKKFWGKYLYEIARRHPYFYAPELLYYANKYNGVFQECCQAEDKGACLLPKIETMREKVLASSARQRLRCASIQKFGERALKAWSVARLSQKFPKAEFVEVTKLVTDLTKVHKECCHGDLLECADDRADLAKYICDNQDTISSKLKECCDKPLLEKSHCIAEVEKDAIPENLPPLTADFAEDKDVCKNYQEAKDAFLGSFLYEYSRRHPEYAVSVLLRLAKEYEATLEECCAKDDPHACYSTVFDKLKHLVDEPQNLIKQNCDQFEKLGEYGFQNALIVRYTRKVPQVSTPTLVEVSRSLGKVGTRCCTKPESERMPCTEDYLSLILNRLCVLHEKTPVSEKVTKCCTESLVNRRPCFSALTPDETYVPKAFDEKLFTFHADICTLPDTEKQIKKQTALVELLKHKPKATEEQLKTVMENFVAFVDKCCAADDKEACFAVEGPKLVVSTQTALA
T1 sequence (P02768 25-609): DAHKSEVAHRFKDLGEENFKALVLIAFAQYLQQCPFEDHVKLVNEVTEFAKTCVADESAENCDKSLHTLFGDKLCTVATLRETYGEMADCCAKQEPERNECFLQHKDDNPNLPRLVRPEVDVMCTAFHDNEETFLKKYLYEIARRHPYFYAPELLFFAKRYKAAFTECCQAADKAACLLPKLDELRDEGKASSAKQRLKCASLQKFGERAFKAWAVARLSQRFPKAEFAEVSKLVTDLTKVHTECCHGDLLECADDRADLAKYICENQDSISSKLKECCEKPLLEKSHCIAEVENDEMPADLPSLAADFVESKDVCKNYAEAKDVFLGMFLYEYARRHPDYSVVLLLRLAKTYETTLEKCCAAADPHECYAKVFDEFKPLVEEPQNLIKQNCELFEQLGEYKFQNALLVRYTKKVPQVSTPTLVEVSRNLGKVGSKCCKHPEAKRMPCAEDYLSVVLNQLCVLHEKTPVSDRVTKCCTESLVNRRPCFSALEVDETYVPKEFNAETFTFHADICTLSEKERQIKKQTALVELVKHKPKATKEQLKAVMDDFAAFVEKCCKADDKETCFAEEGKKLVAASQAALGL

SMILES	KSV (HSA [1]; 298 K)	KSV (HSA [1]; 303 K)	KSV (HSA [1]; 308 K)	kq (HSA [1]; HSA, 298 K)	n (number of binding sites) (HSA [1]; HSA, 298 K)	kq (HSA [1]; HSA, 303 K)	n (number of binding sites) (HSA [1]; HSA, 303 K)	kq (HSA [1]; HSA, 308 K)	n (number of binding sites) (HSA [1]; HSA, 308 K)	Kd (HSA [1]; HSA, 298 K)	Kd (HSA [1]; HSA, 303 K)	Kd (HSA [1]; HSA, 308 K)	further results
CC(C)=CCC[C@](C)(O)[C@H]1CC[C@]2(C)[C@@H]1[C@H](O)C[C@@H]1[C@@]3(C)CC[C@H](O[C@@H]4O[C@H](CO)[C@@H](O)[C@H](O)[C@H]4O)C(C)(C)[C@@H]3CC[C@]12C [(20R) G-Rh2, Ginsenoside Rh2]	4.5120 10^4 M^−1	6.9016 10^4 M^−1	7.2751 10^4 M^−1	4.5120 10^12 M^−1 s^−1	1.131	6.9016 10^12 M^−1 s^−1	1.0626	7.2751 10^12 M^−1 s^−1	1.0284	4.85 µM	6.89 µM	11.5 µM	–
CC(C)=CCC[C@](C)(O)[C@H]1CC[C@]2(C)[C@@H]1[C@H](O)C[C@@H]1[C@@]3(C)CC[C@H](O[C@@H]4O[C@H](CO)[C@@H](O)[C@H](O)[C@H]4O)C(C)(C)[C@@H]3CC[C@]12C [(20S) G-Rh2, Ginsenoside Rh2]	4.9578 10^4 M^−1	6.5117 10^4 M^−1	7.2510 10^4 M^−1	4.9578 10^12 M^−1 s^−1	1.2027	6.5117 10^12 M^−1 s^−1	1.1449	7.2510 10^12 M^−1 s^−1	1.0786	1.83 µM	2.86 µM	5.39 µM	number of binding site (HSA [1]; HSA, temperature not stated, listed as (20S)-Rh2): 1; KSV (BSA [2]; 298 K): 7.3470 10^4 M^−1; KSV (BSA [2]; 303 K): 11.6703 10^4 M^−1; KSV (BSA [2]; 308 K): 9.2848 10^4 M^−1; kq (BSA [2]; BSA, 298 K): 7.3470 10^12 M^−1 s^−1; n (number of binding sites) (BSA [2]; BSA, 298 K): 1.1329; kq (BSA [2]; BSA, 303 K): 11.6703 10^12 M^−1 s^−1; n (number of binding sites) (BSA [2]; BSA, 303 K): 1.0192; kq (BSA [2]; BSA, 308 K): 9.2848 10^12 M^−1 s^−1; n (number of binding sites) (BSA [2]; BSA, 308 K): 0.9702; number of binding site (BSA [2]; BSA, temperature not stated (abstract)): 1; Kd (BSA [2]; BSA, 298 K): 2.77 µM; Kd (BSA [2]; BSA, 303 K): 7.01 µM; Kd (BSA [2]; BSA, 308 K): 15.5 µM; Cell viability (HepG2 cells; increased concentration of albumin by adding HSA, BSA or bovine serum): significantly increased in an albumin-dose-dependent manner; Cell viability (HepG2 cells; without SA): killed almost all cells; PARP cleavage ([3]; with 1.68mg/mL albumin by adding HSA): totally inhibited PARP cleavage; PARP cleavage ([3]; without HSA): caused the cleavage of poly-adenosine diphosphate-ribose polymerase (PARP); water solubility [4]: very low
CC(C)=CCC[C@](C)(O)[C@H]1CC[C@]2(C)[C@@H]1[C@H](O)C[C@@H]1[C@@]3(C)CC[C@H](O[C@@H]4O[C@H](CO)[C@@H](O)[C@H](O)[C@H]4O)C(C)(C)[C@@H]3CC[C@]12C [G-Rh2, Ginsenoside Rh2]	–	–	–	–	–	–	–	–	–	–	–	–	UV-Vis absorption of protein on adding G-Rh2 (HSA [5]): significantly increased with a slight blue shift of the maximum absorption wavelength; UV-Vis absorption of protein on adding G-Rh2 (BSA [6]): significantly increased with a slight blue shift of the maximum absorption wavelength
